From patent US5428020A, “Cysteine (NPYS)-containing peptides and use thereof for inhibiting platelet aggregation” (Matsueda; Rei, priority 1994, dated 1995)
* marks the point of attachment. Npys = O=[N+]([O-])c1cccnc1S*

How the values were obtained:
[1] = biological target: T1, papain (Carica papaya, UniProt P00784); conditions: Teno et al., Int. J. Peptide Protein Res. 30, 93-98 (1987); cited from earlier work
T1 sequence (P00784 134-345): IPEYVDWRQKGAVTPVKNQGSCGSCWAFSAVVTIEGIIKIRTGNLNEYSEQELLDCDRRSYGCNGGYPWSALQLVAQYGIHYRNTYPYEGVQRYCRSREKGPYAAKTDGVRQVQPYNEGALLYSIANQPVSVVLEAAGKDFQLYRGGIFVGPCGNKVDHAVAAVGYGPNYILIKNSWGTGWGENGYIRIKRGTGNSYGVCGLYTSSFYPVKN

[2] = test system: calpain; test: Calpain inhibition, fluorogenic substrate succinyl-Leu-Tyr-amino-4-methylcumarin; format: biochemical; conditions: 90 mM calpain; 1 mM substrate; 25° C.; pH 7.5; 5 mM CaCl2; read-out: Calpain Inhibitory Potency IC50
Protocol: 77, 1565 (1986). A calpain preparation (5~10 μl) was placed on a floating filter membrane (Marusyk et al., Anal. Biochem. 105, 403 (1980)) (Millipore type VMWP) over a buffer containing 50 mM Tris/HCl, pH 7.5 and 2.5 mM EDTA for 45-60 minutes, carefully removed and used for the following inhibition study. Aliquots (25 μl) of the enzyme (calpain) and buffer or synthetic peptide were added to a cuvette at 25° C. containing 1 mM succinyl-Leu-Tyr-amino-4-methylcumarin as the substrate in a buffer consisting of 60 mM Tris/HCl, pH 7.5, 2.5% DMSO and 5 mM CaCl2. The rate of substrate hydrolysis was continuously recorded on a Perkin-Elmer LS-5 fluorescence spectrophotometer connected to a R100 chart recorder. […] The IC50 was calculated from the dose-dependent curve for each inhibitor. The IC50 corresponds to that concentration of inhibitory peptide that produced 50% inhibition of calpain activity. In all cases, […] was utilized.

[3] = test system: human platelets; test: Inhibition of agonist-induced aggregation of washed human platelets (aggregometer); format: cell-based; design: key to Inhibition of platelet aggregation, PMA / Inhibition of platelet aggregation, Thrombin / Inhibition of platelet aggregation, Plasmin / Inhibition of platelet aggregation, ADP / Inhibition of platelet aggregation, Collagen / Inhibition of platelet aggregation, U46619 / Inhibition of platelet aggregation, A23187: "+" indicates inhibition of platelet aggregation; "-" indicates the absence of inhibition of platelet aggregation; "partial" indicates a partial inhibition of platelet aggregation; conditions: for Inhibition of platelet aggregation, A23187: agonist A23187 2.5 uM; for Inhibition of platelet aggregation, A23187 / Inhibition of platelet aggregation, ADP / Inhibition of platelet aggregation, PMA / Inhibition of platelet aggregation, U46619 / Inhibition of platelet aggregation, Collagen / Inhibition of platelet aggregation, Plasmin / Inhibition of platelet aggregation, Thrombin: inhibitor peptide 0.8 nm, 37° C.; for Inhibition of platelet aggregation, ADP: agonist ADP 20 uM; for Inhibition of platelet aggregation, PMA: agonist PMA 0.016 uM; for Inhibition of platelet aggregation, U46619: agonist U46619 1 uM; for Inhibition of platelet aggregation, Collagen: agonist collagen 4 ug/ml; for Inhibition of platelet aggregation, Plasmin: agonist plasmin 0.025 uM; for Inhibition of platelet aggregation, Thrombin: agonist thrombin 0.02 uM
Protocol: Platelet-rich plasma was prepared by differential centrifugation (120×g, 30 min, 23° C.) of fresh whole human blood drawn into acid/citrate/dextrose (citric acid 0.079 M, sodium citrate, 0.085 M and dextrose 0.180 M) in a ratio of 1 ml of anticoagulant solution per 9 ml of blood. The platelets were washed and their suspensions prepared by a modification of the method of Mustard, et al., Brit. J. Haemat. 22, 193-204 (1972). The modifications included incubation of platelet-rich plasma with prostaglandin E1, hirudin and apyrase and two successive washes of the platelets with Tyrode-albumin buffer (without Ca^++) containing hirudin and apyrase, and apyrase alone. Platelet aggregation in the presence of each agonist and inhibitor peptide (0.8 nm) was performed at 37° C. under constant stirring (1100 rpm) conditions in a chronolog (Lumi) aggregometer. The total volume of the incubation mixture in the sample cuvette was 500 μl and the platelet concentration was adjusted to 5×10^8 /ml. The reference cuvette contained the suspension buffer. Platelet aggregation was initiated by the addition of the agonist to the sample cuvette. The data is indicated in the following table wherein "+" indicates inhibition of platelet aggregation, "-" indicates the absence of inhibition of platelet aggregation, and "partial" indicates a partial inhibition of platelet aggregation.

[4] = test system: platelets; test: Platelet shape change induced by thrombin and plasmin; format: cell-based, human
[5] = biological target: T2, thrombin (Homo sapiens, UniProt P00734); test: Amidolytic activity of thrombin; format: biochemical
[6] = biological target: plasmin (Homo sapiens, UniProt P00747); test: Amidolytic activity of plasmin; format: biochemical
Sequence of plasmin (P00747 581-810 limits assumed, species assumed): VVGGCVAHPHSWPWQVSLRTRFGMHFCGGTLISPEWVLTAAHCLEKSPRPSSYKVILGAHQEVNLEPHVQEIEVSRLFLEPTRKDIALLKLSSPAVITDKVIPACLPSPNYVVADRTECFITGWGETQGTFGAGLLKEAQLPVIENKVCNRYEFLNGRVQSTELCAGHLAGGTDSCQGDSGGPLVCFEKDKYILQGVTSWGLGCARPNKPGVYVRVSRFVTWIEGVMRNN
Sequence of plasmin (P00747 97-580 partner limits assumed, species assumed): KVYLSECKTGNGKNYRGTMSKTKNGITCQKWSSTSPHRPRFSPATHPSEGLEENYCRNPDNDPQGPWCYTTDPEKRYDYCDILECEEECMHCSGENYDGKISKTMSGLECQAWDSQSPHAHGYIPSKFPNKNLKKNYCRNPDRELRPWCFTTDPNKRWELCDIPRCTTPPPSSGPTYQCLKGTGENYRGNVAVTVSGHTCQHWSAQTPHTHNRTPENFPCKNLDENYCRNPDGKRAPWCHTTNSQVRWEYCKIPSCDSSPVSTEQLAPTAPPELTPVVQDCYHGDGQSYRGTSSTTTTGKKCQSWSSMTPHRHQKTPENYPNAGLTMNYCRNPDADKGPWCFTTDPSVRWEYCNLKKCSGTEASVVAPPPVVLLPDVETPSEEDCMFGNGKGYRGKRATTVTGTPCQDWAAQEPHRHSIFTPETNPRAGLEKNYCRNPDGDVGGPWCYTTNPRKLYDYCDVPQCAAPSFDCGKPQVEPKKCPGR

[7] = biological target: T2, thrombin; test: Fibrinogenolytic activity of thrombin; format: biochemical
[8] = test system: platelets; test: Platelet cAMP levels; format: cell-based, human
[9] = test system: aggregen; test: Thrombin- and plasmin-induced cleavage of labeled aggregen in intact radiolabeled platelets; format: cell-based, human

Row | Substance | IC50 [2] [µM] | activity in inhibiting the thiol protease papain [1] | Inhibition of platelet aggregation, A23187 [3] | Inhibition of platelet aggregation, ADP [3] | Inhibition of platelet aggregation, PMA [3] | Inhibition of platelet aggregation, U46619 [3] | Inhibition of platelet aggregation, Collagen [3] | Inhibition of platelet aggregation, Plasmin [3] | Inhibition of platelet aggregation, Thrombin [3] | aggregation induced by any of the other agonists tested ([3]; agonists other than thrombin and plasmin) | effect on platelet shape change introduced by thrombin and plasmin [4] | inhibition of amidolytic activity of thrombin [5] | inhibition of amidolytic activity of plasmin [6] | inhibition of fibrinogenolytic activity of thrombin [7] | platelet-cAMP levels [8] | thrombin- and plasmin induced cleavage of [^3 H]-5'-p-fluorosulfonylbenzoyl adenosine-labeled aggregen [9]
1 | Gln-Val-Val-Ala-Gly (QVVAG; printed: Gln-Val-Val-Ala-Gly) [QVAAG, pentapeptide of kininogen D2 and D3 repeats] |  | weak activity |  |  |  |  |  |  |  |  |  |  |  |  |  | 
2 | TFA.H-Arg-Gln-Val-Val-Cys(NPYS)-GlY-NH2 (H-RQVVC(Npys)G-NH2; also: TFA salt) [Example 3] | 55 |  | partial | + | + | + | + | + | + |  |  |  |  |  |  | 
3 | TFA.H-Phe-Gln-Val-Val-Cys(NpyS)-Gly-NH2 (H-FQVVC(Npys)G-NH2; also: TFA salt) [Example 1] | 4.1 |  | - | - | - | - | - | + | + | did not inhibit | no effect | did not inhibit | did not inhibit | did not inhibit | did not raise | completely inhibited
4 | TFA.H-Phe-Gln-Leu-Val-Cys(NpyS)-Gly-NH2 (H-FQLVC(Npys)G-NH2; also: TFA salt) [Example 2] | 5.6 |  | partial | partial | partial | partial | partial | + | + |  |  |  |  |  |  | 

Further lines, with some results ahead:

Row | IC50 [2] [µM] | Substance | activity in inhibiting the thiol protease papain [1] | Inhibition of platelet aggregation, A23187 [3] | Inhibition of platelet aggregation, ADP [3] | Inhibition of platelet aggregation, PMA [3] | Inhibition of platelet aggregation, U46619 [3] | Inhibition of platelet aggregation, Collagen [3] | Inhibition of platelet aggregation, Plasmin [3] | Inhibition of platelet aggregation, Thrombin [3] | aggregation induced by any of the other agonists tested ([3]; agonists other than thrombin and plasmin) | effect on platelet shape change introduced by thrombin and plasmin [4] | inhibition of amidolytic activity of thrombin [5] | inhibition of amidolytic activity of plasmin [6] | inhibition of fibrinogenolytic activity of thrombin [7] | platelet-cAMP levels [8] | thrombin- and plasmin induced cleavage of [^3 H]-5'-p-fluorosulfonylbenzoyl adenosine-labeled aggregen [9]
5 | 16 | TFA.H-Ala-Gln-Val-Val-CYs (NpyS)-GlY-NH2 (H-AQVV-{Cys(NpyS)-Gly-NH2}; also: TFA salt) [Example 4] |  | partial | + | + | + | + | + | + |  |  |  |  |  |  | 
6 | 36 | TFA.H-Gln-Val-Val-Cys(NpyS)-Gly-NH2 (H-QVVC(Npys)G-NH2; also: TFA salt) [Example 5] |  | partial | + | + | + | + | + | + |  |  |  |  |  |  | 
